Test results: patent US9499492B2, “4-(ortho)-fluorophenyl-5-fluoropyrimidin-2-yl amines containing a sulfoximine group” (BAYER PHARMA AKTIENGESELLSCHAFT, priority 2012, dated 2016)
Like-named read-outs stand apart in the source and are kept apart here. One block for each compound: values may come before it.

Columns and labels:
[1] = target: CDK2/CycE (Homo sapiens (Human), UniProt P24941); assay: CDK2/CycE kinase assay (Method 2); type: biochemical; settings: 10 μM ATP
Text: 2. CDK2/CycE Kinase Assay:
CDK2/CycE-inhibitory activity of compounds of the present invention was quantified employing the CDK2/CycE TR-FRET assay as described in the following paragraphs:
Recombinant fusion proteins of GST and human CDK2 and of GST and human CycE, expressed in insect cells (Sf9) and purified by Glutathion-Sepharose affinity chromatography, were purchased from ProQinase GmbH (Freiburg, Germany). As substrate for the kinase reaction biotinylated peptide biotin-Ttds-[…] (C-terminus in amid form) was used which can be purchased e.g. form the company JERINI Peptide Technologies (Berlin, Germany).
(§1) For the assay 50 nl of a 100 fold concentrated solution of the test compound in DMSO was pipetted into a black low volume 384 well microtiter plate (Greiner Bio-One, Frickenhausen, Germany), 2 μl of a solution of CDK2/CycE in aqueous assay buffer [50 mM Tris/HCl pH 8.0, 10 mM MgCl2, 1.0 mM dithiothreitol, 0.1 mM sodium ortho-vanadate, 0.01% (v/v) Nonidet-P40 (Sigma)] were added and the mixture was incubated for 15 min at 22° C. to allow pre-binding of the test compounds to the enzyme before the start of the kinase reaction. […] The concentration of CDK2/CycE was adjusted depending of the activity of the enzyme lot and was chosen appropriate to have the assay in the linear range, typical concentrations were in the range of 130 ng/ml.
(§2) The resulting mixture was incubated 1 h at 22° C. to allow the formation of complex between the phosphorylated biotinylated peptide and the detection reagents. Subsequently the amount of phosphorylated substrate was evaluated by measurement of the resonance energy transfer from the Eu-chelate to the streptavidine-XL. Therefore, the fluorescence emissions at 620 nm and 665 nm after excitation at 350 nm was measured in a TR-FRET reader, e.g. a Rubystar (BMG Labtechnologies, Offenburg, Germany) or a Viewlux (Perkin-Elmer). The ratio of the emissions at 665 nm and at 622 nm was taken as the measure for the amount of phosphorylated substrate.

[2] = system: HeLa, human cervical tumour cells; assay: Proliferation assay, HeLa (Method 3); type: cell-based; settings: 4 days, crystal violet, read-out: Inhibition of HeLa cell proliferation IC50
Experimental: (§3) After 24 hours, the cells of one plate (zero-point plate) were stained with crystal violet (see below), while the medium of the other plates was replaced by fresh culture medium (200 μl), to which the test substances were added in various concentrations (0 μM, as well as in the range of 0.001-10 μM; the final concentration of the solvent dimethyl sulfoxide was 0.5%). The cells were incubated for 4 days in the presence of test substances. Cell proliferation was determined by staining the cells with crystal violet: the cells were fixed by adding 20 μl/measuring point of an 11% glutaric aldehyde solution for 15 minutes at room temperature. After three washing cycles of the fixed cells with water, the plates were dried at room temperature. The cells were stained by adding 100 μl/measuring point of a 0.1% crystal violet solution (pH 3.0). After three washing cycles of the stained cells with water, the plates were dried at room temperature. The dye was dissolved by adding 100 μl/measuring point of a 10% acetic acid solution. The extinction was determined by photometry at a wavelength of 595 nm. The change of cell number, in percent, was calculated by normalization of the measured values to the extinction values of the zero-point plate (=0%) and the extinction of the untreated (0 μm) cells (=100%).

[3] = system: A2780, human ovarian carcinoma cells; assay: Proliferation assay, A2780 (Method 3); type: cell-based; settings: A2780, 4 days, crystal violet, read-out: Inhibition of A2780 cell proliferation IC50
Experimental: as §3

[4] = target: CDK9/CycT1 (Homo sapiens (Human), UniProt P50750); assay: CDK9/CycT1 kinase assay (Method 1a); type: biochemical; settings: for IC50: 10 μM ATP; for Selectivity CDK9/CDK2: derived from Methods 1a. and 2.
Sequence of CDK9/CycT1 (P50750 whole entry): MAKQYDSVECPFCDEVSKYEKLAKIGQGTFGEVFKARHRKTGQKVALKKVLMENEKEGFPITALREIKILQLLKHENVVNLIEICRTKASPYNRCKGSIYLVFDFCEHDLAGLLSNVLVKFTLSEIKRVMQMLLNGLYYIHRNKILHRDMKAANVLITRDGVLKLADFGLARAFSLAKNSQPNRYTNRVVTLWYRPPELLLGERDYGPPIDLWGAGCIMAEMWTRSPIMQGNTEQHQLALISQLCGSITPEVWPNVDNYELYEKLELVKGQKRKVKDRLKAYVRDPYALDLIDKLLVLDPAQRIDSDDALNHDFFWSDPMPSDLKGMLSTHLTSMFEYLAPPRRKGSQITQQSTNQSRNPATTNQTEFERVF
Sequence of CDK9/CycT1 (O60563 whole entry partner): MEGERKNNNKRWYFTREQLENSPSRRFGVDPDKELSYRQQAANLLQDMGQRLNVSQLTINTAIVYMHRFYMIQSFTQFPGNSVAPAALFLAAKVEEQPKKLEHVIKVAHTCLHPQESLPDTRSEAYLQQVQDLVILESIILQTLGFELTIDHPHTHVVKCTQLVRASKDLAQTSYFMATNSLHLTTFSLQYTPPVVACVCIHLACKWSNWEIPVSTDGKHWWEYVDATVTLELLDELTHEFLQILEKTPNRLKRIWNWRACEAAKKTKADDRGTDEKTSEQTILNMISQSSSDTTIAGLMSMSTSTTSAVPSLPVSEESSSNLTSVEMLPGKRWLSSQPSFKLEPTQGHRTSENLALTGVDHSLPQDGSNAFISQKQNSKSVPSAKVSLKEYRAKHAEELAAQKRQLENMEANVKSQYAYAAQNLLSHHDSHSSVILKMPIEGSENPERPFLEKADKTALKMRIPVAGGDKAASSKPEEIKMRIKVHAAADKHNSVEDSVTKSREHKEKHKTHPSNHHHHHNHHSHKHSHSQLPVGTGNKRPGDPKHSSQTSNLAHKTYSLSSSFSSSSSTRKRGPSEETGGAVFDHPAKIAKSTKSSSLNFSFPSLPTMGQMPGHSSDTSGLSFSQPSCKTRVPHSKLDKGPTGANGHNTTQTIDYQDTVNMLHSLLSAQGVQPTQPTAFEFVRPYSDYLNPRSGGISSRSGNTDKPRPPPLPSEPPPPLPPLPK
Text: 1a. CDK9/CycT1 Kinase Assay:
CDK9/CycT1-inhibitory activity of compounds of the present invention was quantified employing the CDK9/CycT1 TR-FRET assay as described in the following paragraphs:
Recombinant full-length His-tagged human CDK9 and CycT1, expressed in insect cells and purified by Ni-NTA affinity chromatography, were purchased from Invitrogen (Cat. No PV4131). As substrate for the kinase reaction biotinylated peptide biotin-Ttds-[…] (C-terminus in amid form) was used which can be purchased e.g. form the company JERINI Peptide Technologies (Berlin, Germany).
as §1, with “CDK9/CycT1” for “CDK2/CycE”, “1 μg/ml.” for “130 ng/ml.”
as §2, with “HTRF” for “TR-FRET”

IC50 ([2]; Homo sapiens, 96 h): 1320 nM
IC50 ([3]; Homo sapiens, A2780, 96 h): 900 nM
SMILES: CS(=N)(=O)Cc1cc(F)cc(Nc2ncc(F)c(-c3ccc(F)cc3F)n2)c1 (racemic) [Example 11, (rac)-4-(2,4-Difluorophenyl)-5-fluoro-N-{3-fluoro-5-[(S-methylsulfonimidoyl)methyl]phenyl}pyrimidin-2-amine]

IC50 [4]: 13 nM
Selectivity CDK9/CDK2 [4]: 30
IC50 [1]: 380 nM
IC50 ([2]; Homo sapiens, 96 h): 1600 nM
SMILES: CS(=N)(=O)Cc1cc(Br)cc(Nc2ncc(F)c(-c3ccc(F)cc3F)n2)c1 (racemic) [Example 19, (rac)-N-{3-Bromo-5-[(S-methylsulfonimidoyl)methyl]phenyl}-4-(2,4-difluorophenyl)-5-fluoropyrimidin-2-amine]

IC50 ([2]; Homo sapiens, 96 h): 780 nM
SMILES: COc1cc(CS(C)(=N)=O)cc(Nc2ncc(F)c(-c3ccc(F)cc3F)n2)c1 (racemic) [Example 21, (rac)-4-(2,4-Difluorophenyl)-5-fluoro-N-{3-methoxy-5-[(S-methylsulfonimidoyl)methyl]phenyl}pyrimidin-2-amine]

IC50 [1]: 1700 nM
IC50 ([2]; Homo sapiens, 96 h): 1940 nM
IC50 ([3]; Homo sapiens, A2780, 96 h): > 1000 nM
SMILES: CS(=N)(=O)Cc1cc(F)cc(Nc2ncc(F)c(-c3ccc(F)cc3F)n2)c1 (single isomer, unassigned) [Example 12, 4-(2,4-Difluorophenyl)-5-fluoro-N-{3-fluoro-5-[(S-methylsulfonimidoyl)methyl]phenyl}pyrimidin-2-amine]

IC50 [1]: 730 nM
IC50 [2]: 1760 nM
IC50 [3]: > 1000 nM
SMILES: CS(=N)(=O)Cc1cc(F)cc(Nc2ncc(F)c(-c3ccc(F)cc3F)n2)c1 (single isomer, unassigned) [Example 13, 4-(2,4-Difluorophenyl)-5-fluoro-N-{3-fluoro-5-[(S-methylsulfonimidoyl)methyl]phenyl}pyrimidin-2-amine]

IC50 [4]: 18 nM
Selectivity CDK9/CDK2 [4]: 28
IC50 [1]: 509 nM
SMILES: CS(=N)(=O)Cc1cc(Br)cc(Nc2ncc(F)c(-c3ccc(F)cc3F)n2)c1 (single isomer, unassigned) [Example 41, N-{3-Bromo-5-[(S-methylsulfonimidoyl)methyl]phenyl}-4-(2,4-difluorophenyl)-5-fluoropyrimidin-2-amine]

More lines, now with the values behind:

SMILES: CCOC(=O)N=S(C)(=O)Cc1cccc(Nc2ncc(F)c(-c3ccc(F)cc3F)n2)c1 (racemic) [Example 8, (rac)-Ethyl[(3-{[4-(2,4-difluorophenyl)-5-fluoropyrimidin-2-yl]amino}benzyl)(methyl)oxido-λ^6-sulfanylidene]carbamate]
IC50 [1]: 560 nM
IC50 ([2]; Homo sapiens, 96 h): 4470 nM

SMILES: CS(=O)(Cc1cc(F)cc(Nc2ncc(F)c(-c3ccc(F)cc3F)n2)c1)=NC#N (racemic) [Example 10, (rac)-[(3-{[4-(2,4-Difluorophenyl)-5-fluoropyrimidin-2-yl]amino}-5-fluorobenzyl)(methyl)oxido-λ^6-sulfanylidene]cyanamide]
IC50 [1]: 570 nM
IC50 ([2]; Homo sapiens, 96 h): 1050 nM
IC50 ([3]; Homo sapiens, A2780, 96 h): 430 nM

SMILES: Cc1cc(CS(C)(=O)=NC#N)cc(Nc2ncc(F)c(-c3ccc(F)cc3F)n2)c1 (racemic) [Example 16, (rac)-[(3-{[4-(2,4-Difluorophenyl)-5-fluoropyrimidin-2-yl]amino}-5-methylbenzyl)(methyl)oxido-λ^6-sulfanylidene]cyanamide]
IC50 [1]: 470 nM
IC50 ([2]; Homo sapiens, 96 h): 850 nM
IC50 ([3]; Homo sapiens, A2780, 96 h): 300 nM

SMILES: Cc1cc(CS(C)(=O)=NC#N)cc(Nc2ncc(F)c(-c3ccc(F)cc3F)n2)c1 (single isomer, unassigned) [Example 35, [(3-{[4-(2,4-Difluorophenyl)-5-fluoro-pyrimidin-2-yl]amino}-5-methylbenzyl)-(methyl)oxido-λ^6-sulfanylidene]cyanamide]
IC50 [1]: 390 nM
IC50 [2]: 458 nM
IC50 ([3]; Homo sapiens, A2780, 96 h): 327 nM

SMILES: Cc1cc(CS(C)(=O)=NC#N)cc(Nc2ncc(F)c(-c3ccc(F)cc3F)n2)c1 (single isomer, unassigned) [Example 36, [(3-{[4-(2,4-Difluorophenyl)-5-fluoro-pyrimidin-2-yl]amino}-5-methylbenzyl)-(methyl)oxido-λ^6-sulfanylidene]cyanamide]
IC50 [1]: 400 nM
IC50 [2]: 1020 nM
IC50 [3]: 338 nM
